Experimental data: US10329542B2, “HBV RNAse H purification and enzyme inhibitors” (Saint Louis University, priority 2012, dated 2019)
“Also recorded” adds a separate entry of the source.

Columns and labels:
HBV genotype A = test: HBV replication inhibition in Huh7 cells, Southern blot, genotype A; assay type: cell-based, Hepatitis B virus; conditions: for Inhibition of HBV replication, RNA:DNA heteroduplex signature: 10 μM, Huh7 cells, Southern blot
Procedure: Huh7 cells were maintained in Dulbecco's modified Eagle's medium with 10% fetal bovine serum at 37° C. in 5% CO2. Cells were seeded into 60 mm dishes and transfected at 70% confluency with 2.6 μg of plasmids using TransIT-LT1 (Mirus, Inc.). Test compounds were added the morning following transfection at 10 or 50 μM, and fresh medium containing the compounds was provided every 1-2 days. Four or five days post-transfection HBV cores were isolated by lysis of the cells in 10 mM Tris pH 7.5, 1 mM EDTA, 0.25% NP40, 50 mM NaCl, and 8% sucrose followed by sedimentation through a 30% sucrose cushion as described (Travis, et al., 1998). Viral DNAs were isolated from cytoplasmic core particle preparations by proteinase K digestion followed by phenol/chloroform extraction as described (Gong et al., 2001). Duplicate aliquots of the nucleic acids were treated with 2 U E. coli DNAse-free RNAseH (Invitrogen) at 37° C. for 30 min. or were mock treated. The nucleic acid samples were resolved by electrophoresis on 1.2% agarose gels and detected by Southern blotting with ^32P-labeled HBV DNA as a probe.
Finally, the inventors asked whether HBV RNAseH inhibitors could block HBV replication in culture. Huh7 cells were transfected with genomic expression vectors for HBV genotype A or D isolates, the cells were treated with 10 or 50 μM compounds, and viral nucleic acids were isolated from intracellular HBV capsids after four days. Replicate nucleic acid aliquots were mock treated or treated with DNAse-free E. coli RNAseH to destroy RNA:DNA heteroduplexes, and then HBV DNAs were detected by Southern blotting. The signature of RNAseH inhibition is accumulation of RNA:DNA heteroduplexes that migrate as double-stranded species without exogenous RNAseH treatment but as faster-migrating single-stranded DNAs following RNAseH treatment.
Inhibition of HBV replication by βTJ was measured as recently described (Tavis et al., 2013). Briefly, Huh7 cells were transfected with HBV genomic expression vectors using TransIT-LT1 (Mirus, Inc.), βTJ was added 12-16 hrs post-transfection at the indicated concentrations, and fresh medium containing the compounds was provided two days later. HBV core particles were isolated four days post-transfection by detergent lysis of the cells and sedimentation through a sucrose cushion as described (Tavis et al., 1998). Viral DNAs were isolated from cytoplasmic core particle preparations by proteinase K digestion followed by phenol/chloroform extraction as described (Gong et al., 2001). Duplicate aliquots of each nucleic acid preparation were treated with 2 U E. coli DNAse-free RNAseH (Invitrogen) at 37° C. for 30 min. or were mock treated. The nucleic acids were resolved by electrophoresis on 1.2% agarose gels and HBV DNAs were detected by Southern blotting with ^32P-labeled double-stranded HBV DNA as a probe to detect both the plus- and minus-polarity HBV DNA strands. HBV core protein (HBc) and β-actin in the cytoplasmic lysates were monitored by western analysis using an anti-HBc antibody (HBP-023-9, Austral Biologicals) and a mouse […] monoclonal antibody from ZSGB-BIO Co., Ltd., respectively. HBV surface antigen (HBs) proteins were quantified by ELISA (Shanghai Kehua Biotech).

Huh7 cells = test: MTS cytotoxicity assay in Huh7 cells; assay type: cell-based, human
Procedure: Toxicity of βTJ in Huh7 cells was determined with 3-(4,5-dimethylthiazol-2-yl)-5-β-carboxymethoxyphenyl)-2-(4-sulfophenyl)-2H-tetrazolium (MTS) assays that measures mitochondrial dysfunction employing the Cell Titre 96 aqueous nonradioactive cell proliferation assay (Promega), and with the CytoTox-Glo assay (Promega) that reflects cellular integrity. Huh7 and HepG2 cells (1×10^4) were plated in 96-well tissue culture plates, medium containing βTJ at the indicated concentrations was added the next day, the medium was replaced with fresh medium containing βTJ after two days, and after four days the MTS or CytoTox-Glo assays were conducted according to the manufacturer's instructions.

HBV = test: Quantitative PCR screen of HBV plus-polarity DNA accumulation; assay type: cell-based, Hepatitis B virus; conditions: 60, 20, or 6.7 μM; DNA isolated day 3
Procedure: This assay was employed to screen 7 compounds for their ability to suppress HBV replication (FIG. 17). […] Fresh medium containing compound was provided on days 1 and 2, and capsid-associated HBV DNAs were isolated on day 3. HBV plus-strand DNAs were measured using the cross-gap TaqMan PCR assay.
Plus-polarity preferential quantitative TaqMan PCR for the HBV DNA was conducted employing forward primer […] […] PCR was conducted on purified HBV capsid-derived nucleic acids for 40 cycles of 95° C. for 15 sec. and 65° C. for 1 min. employing the TaqMan universal PCR master mix (Applied Biosystems). Results were standardized against serial dilutions of cloned HBV DNA. The EC50 was estimated by linear regression of the real-time PCR data.

Question: With Cc1c2cc(O)c(=O)cc-2oc2cc(O)c(O)cc12 [Compound 8] as the molecule, how does the “Inhibition of HBV replication, RNA:DNA heteroduplex signature” value (HBV genotype A) read?
Answer: did not affect HBV replication

Question: Which “Inhibition of HBV replication, RNA:DNA heteroduplex signature” value (HBV genotype A) does the source give for NCc1ccc(-c2ccc(Cc3cc(=O)n(O)c4ncccc34)cc2)cc1 [Compound 12, napthyridinone] here?
Answer: blocked production of the slowest-migrating double-stranded forms; also recorded: inhibited HBV replication in cell culture; also recorded: inhibited production of the slowest-migrating (mature) viral DNA

Question: And the “Estimated CC50, MTS assay, Huh7 cells” value (Huh7 cells)?
Answer: low μM range

Question: How did the “Suppression of HBV plus-polarity DNA accumulation” value (HBV) turn out when CCOc1ccc(-c2c3cc(O)c(=O)cc-3oc3cc(O)c(O)cc23)cc1 [Compound 30] was run?
Answer: inhibited accumulation of HBV plus-polarity DNA to lesser extents

Question: For COc1ccc2ccccc2c1C=NNC(=O)c1cc(O)c(O)c(O)c1 [Compound 14], which “Inhibition of HBV replication” value (HBV genotype A; 25 μM) is on record?
Answer: inhibited HBV replication in one experiment

Question: CC(C)c1ccc(O)c(=O)c(O)c1 [Compound 46, beta-thujaplicinol] was tested. Which “Inhibition of HBV replication, RNA:DNA heteroduplex signature” value (HBV genotype A) did it give?
Answer: inhibited HBV replication in cell culture; also recorded: inhibited production of the slowest-migrating (mature) viral DNA

Question: What about the “Accumulation of RC DNA and RNA:DNA heteroduplexes” value (HBV genotype A; 2.5, 10, 15, and 20 μM, four days) of the same molecule?
Answer: suppressed accumulation of the RC DNA

Question: What about the “Total amount of viral DNA detected” value (HBV genotype A; 15 and 20 μM) of the same molecule?
Answer: suppressed

Question: And the “Suppression of HBV plus-polarity DNA accumulation” value (HBV)?
Answer: suppressed viral replication to background

Question: What about the CC50 (Huh7 cells; four days) of the same molecule?
Answer: 10.1 ± 1.7 µM

Question: [N-]=[N+]=NCc1cccc(C(=O)CC(=O)C(=O)O)c1 [Compound 40] was tested. Which “Inhibition of HBV replication” value (HBV genotype A; 50 μM) did it give?
Answer: inhibited replication in another experiment
